Source: ChEMBL document CHEMBL3991601, “The target landscape of clinical kinase drugs” (Science, 2017)
Calls of active or inactive are those of the source. Cut-off read from the data, not from the text of the source, for most assays here: actives have a measured Kd and inactives only a lower limit.

Each compound was assayed against T1, Membrane-associated tyrosine- and threonine-specific cdc2-inhibitory kinase (Homo sapiens, UniProt Q99640).
T1 sequence (Q99640 whole entry): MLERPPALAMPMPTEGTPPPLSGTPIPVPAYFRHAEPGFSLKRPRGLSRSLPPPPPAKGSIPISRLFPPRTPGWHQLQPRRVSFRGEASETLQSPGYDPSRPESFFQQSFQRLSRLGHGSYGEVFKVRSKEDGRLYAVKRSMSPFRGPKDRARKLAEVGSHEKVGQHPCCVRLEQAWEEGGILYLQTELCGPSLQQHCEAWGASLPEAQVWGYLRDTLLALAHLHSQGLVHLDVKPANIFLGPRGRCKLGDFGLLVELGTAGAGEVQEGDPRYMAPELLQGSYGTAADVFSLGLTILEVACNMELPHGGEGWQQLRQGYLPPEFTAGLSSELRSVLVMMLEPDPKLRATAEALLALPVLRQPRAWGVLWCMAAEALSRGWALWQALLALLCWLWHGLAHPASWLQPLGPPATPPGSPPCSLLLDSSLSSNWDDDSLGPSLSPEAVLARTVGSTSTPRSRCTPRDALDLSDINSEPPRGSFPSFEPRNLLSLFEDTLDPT
Note: in the data inactive means no Kd found up to 30 µM.

Row | SMILES | Kd
1 | N[C@@H]1CCCN(c2c(/C=C3\SC(=O)NC3=O)cccc2-c2ccccc2)C1 | > 30 µM (inactive)
2 | Cc1ccc(S(=O)(=O)Nc2nc3ccccc3nc2Nc2ccc3nsnc3c2)cc1 | > 30 µM (inactive)
3 | CN1CC[C@@H](c2c(O)cc(O)c3c(=O)cc(-c4ccccc4Cl)oc23)[C@@H]1CO | > 30 µM (inactive)

These compounds were tested against Cyclin-dependent kinase 7 (Homo sapiens, UniProt P50613).
Cyclin-dependent kinase 7, sequence (P50613 whole entry): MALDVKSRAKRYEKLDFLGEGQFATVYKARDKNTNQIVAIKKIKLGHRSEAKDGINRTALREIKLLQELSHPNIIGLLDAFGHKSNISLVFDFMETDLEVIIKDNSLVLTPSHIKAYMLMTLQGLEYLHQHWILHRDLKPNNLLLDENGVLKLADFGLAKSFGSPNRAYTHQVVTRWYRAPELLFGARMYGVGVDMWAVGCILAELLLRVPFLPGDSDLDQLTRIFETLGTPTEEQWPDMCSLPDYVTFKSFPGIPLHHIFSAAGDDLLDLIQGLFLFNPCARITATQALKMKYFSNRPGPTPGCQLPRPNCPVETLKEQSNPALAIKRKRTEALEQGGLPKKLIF

Row | SMILES | Kd
4 | N[C@@H]1CCCN(c2c(/C=C3\SC(=O)NC3=O)cccc2-c2ccccc2)C1 | > 30 µM (inactive)
5 | Cc1ccc(S(=O)(=O)Nc2nc3ccccc3nc2Nc2ccc3nsnc3c2)cc1 | > 30 µM (inactive)
6 | CN1CC[C@@H](c2c(O)cc(O)c3c(=O)cc(-c4ccccc4Cl)oc23)[C@@H]1CO | > 30 µM (inactive)

What follows are compounds tested against T2, Very long-chain specific acyl-CoA dehydrogenase, mitochondrial (Homo sapiens, UniProt P49748).
T2 sequence (P49748 whole entry): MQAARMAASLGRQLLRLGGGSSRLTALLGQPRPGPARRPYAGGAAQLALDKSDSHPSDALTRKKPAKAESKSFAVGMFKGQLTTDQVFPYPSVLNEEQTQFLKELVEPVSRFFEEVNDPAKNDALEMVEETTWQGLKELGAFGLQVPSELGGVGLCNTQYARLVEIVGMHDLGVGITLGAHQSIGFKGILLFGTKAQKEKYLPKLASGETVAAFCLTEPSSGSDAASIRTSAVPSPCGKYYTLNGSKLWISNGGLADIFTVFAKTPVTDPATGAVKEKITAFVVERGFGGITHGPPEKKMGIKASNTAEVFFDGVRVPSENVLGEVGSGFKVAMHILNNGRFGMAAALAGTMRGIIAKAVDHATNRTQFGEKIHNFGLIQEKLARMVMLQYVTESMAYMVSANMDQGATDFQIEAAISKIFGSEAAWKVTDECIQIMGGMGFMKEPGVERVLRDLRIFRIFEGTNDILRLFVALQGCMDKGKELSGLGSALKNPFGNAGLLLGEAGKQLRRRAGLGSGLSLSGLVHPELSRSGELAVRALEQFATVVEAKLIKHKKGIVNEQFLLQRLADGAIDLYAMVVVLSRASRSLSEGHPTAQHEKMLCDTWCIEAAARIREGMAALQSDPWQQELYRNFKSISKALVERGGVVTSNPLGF

Row | SMILES | Kd
7 | N[C@@H]1CCCN(c2c(/C=C3\SC(=O)NC3=O)cccc2-c2ccccc2)C1 | > 30 µM (inactive)
8 | Cc1ccc(S(=O)(=O)Nc2nc3ccccc3nc2Nc2ccc3nsnc3c2)cc1 | > 30 µM (inactive)
9 | CN1CC[C@@H](c2c(O)cc(O)c3c(=O)cc(-c4ccccc4Cl)oc23)[C@@H]1CO | > 30 µM (inactive)

What follows are compounds tested against Insulin receptor (Homo sapiens, UniProt P06213).

Row | SMILES | Kd
10 | N[C@@H]1CCCN(c2c(/C=C3\SC(=O)NC3=O)cccc2-c2ccccc2)C1 | > 30 µM (inactive)
11 | Cc1ccc(S(=O)(=O)Nc2nc3ccccc3nc2Nc2ccc3nsnc3c2)cc1 | > 30 µM (inactive)
12 | CN1CC[C@@H](c2c(O)cc(O)c3c(=O)cc(-c4ccccc4Cl)oc23)[C@@H]1CO | > 30 µM (inactive)

These compounds were tested against Cyclin-dependent kinase 5 (Homo sapiens, UniProt Q00535).
Cyclin-dependent kinase 5, sequence (Q00535 whole entry): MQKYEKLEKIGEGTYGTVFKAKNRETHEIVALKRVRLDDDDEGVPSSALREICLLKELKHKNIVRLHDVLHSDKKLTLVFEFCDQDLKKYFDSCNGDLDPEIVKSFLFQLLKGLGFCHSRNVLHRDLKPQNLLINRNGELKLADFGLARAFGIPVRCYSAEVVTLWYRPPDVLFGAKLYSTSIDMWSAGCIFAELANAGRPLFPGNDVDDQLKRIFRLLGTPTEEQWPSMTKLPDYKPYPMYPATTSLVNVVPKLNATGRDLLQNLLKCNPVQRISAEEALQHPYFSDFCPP

Row | SMILES | Kd
13 | N[C@@H]1CCCN(c2c(/C=C3\SC(=O)NC3=O)cccc2-c2ccccc2)C1 | > 30 µM (inactive)
14 | Cc1ccc(S(=O)(=O)Nc2nc3ccccc3nc2Nc2ccc3nsnc3c2)cc1 | > 30 µM (inactive)
15 | CN1CC[C@@H](c2c(O)cc(O)c3c(=O)cc(-c4ccccc4Cl)oc23)[C@@H]1CO | > 30 µM (inactive)

What follows are compounds tested against Aurora kinase B (Homo sapiens, UniProt Q96GD4).
Aurora kinase B, sequence (Q96GD4 whole entry): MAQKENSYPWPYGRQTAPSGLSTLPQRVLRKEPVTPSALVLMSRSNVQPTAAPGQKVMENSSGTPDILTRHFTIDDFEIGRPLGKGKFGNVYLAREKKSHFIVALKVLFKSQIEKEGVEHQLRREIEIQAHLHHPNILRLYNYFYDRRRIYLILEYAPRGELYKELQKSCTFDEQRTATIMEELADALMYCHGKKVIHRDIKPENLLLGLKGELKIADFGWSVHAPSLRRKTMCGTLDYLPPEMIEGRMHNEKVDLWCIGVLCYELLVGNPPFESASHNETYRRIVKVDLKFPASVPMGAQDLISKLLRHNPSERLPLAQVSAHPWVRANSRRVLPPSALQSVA

Row | SMILES | Kd
16 | N[C@@H]1CCCN(c2c(/C=C3\SC(=O)NC3=O)cccc2-c2ccccc2)C1 | > 30 µM (inactive)
17 | Cc1ccc(S(=O)(=O)Nc2nc3ccccc3nc2Nc2ccc3nsnc3c2)cc1 | > 30 µM (inactive)
18 | CN1CC[C@@H](c2c(O)cc(O)c3c(=O)cc(-c4ccccc4Cl)oc23)[C@@H]1CO | > 30 µM (inactive)

What follows are compounds tested against DNA topoisomerase 2-alpha (Homo sapiens, UniProt P11388).

Row | SMILES | Kd
19 | N[C@@H]1CCCN(c2c(/C=C3\SC(=O)NC3=O)cccc2-c2ccccc2)C1 | > 30 µM (inactive)
20 | Cc1ccc(S(=O)(=O)Nc2nc3ccccc3nc2Nc2ccc3nsnc3c2)cc1 | > 30 µM (inactive)
21 | CN1CC[C@@H](c2c(O)cc(O)c3c(=O)cc(-c4ccccc4Cl)oc23)[C@@H]1CO | > 30 µM (inactive)

The compounds below were run against Serine/threonine-protein kinase 10 (Homo sapiens, UniProt O94804).
Serine/threonine-protein kinase 10, sequence (O94804 whole entry): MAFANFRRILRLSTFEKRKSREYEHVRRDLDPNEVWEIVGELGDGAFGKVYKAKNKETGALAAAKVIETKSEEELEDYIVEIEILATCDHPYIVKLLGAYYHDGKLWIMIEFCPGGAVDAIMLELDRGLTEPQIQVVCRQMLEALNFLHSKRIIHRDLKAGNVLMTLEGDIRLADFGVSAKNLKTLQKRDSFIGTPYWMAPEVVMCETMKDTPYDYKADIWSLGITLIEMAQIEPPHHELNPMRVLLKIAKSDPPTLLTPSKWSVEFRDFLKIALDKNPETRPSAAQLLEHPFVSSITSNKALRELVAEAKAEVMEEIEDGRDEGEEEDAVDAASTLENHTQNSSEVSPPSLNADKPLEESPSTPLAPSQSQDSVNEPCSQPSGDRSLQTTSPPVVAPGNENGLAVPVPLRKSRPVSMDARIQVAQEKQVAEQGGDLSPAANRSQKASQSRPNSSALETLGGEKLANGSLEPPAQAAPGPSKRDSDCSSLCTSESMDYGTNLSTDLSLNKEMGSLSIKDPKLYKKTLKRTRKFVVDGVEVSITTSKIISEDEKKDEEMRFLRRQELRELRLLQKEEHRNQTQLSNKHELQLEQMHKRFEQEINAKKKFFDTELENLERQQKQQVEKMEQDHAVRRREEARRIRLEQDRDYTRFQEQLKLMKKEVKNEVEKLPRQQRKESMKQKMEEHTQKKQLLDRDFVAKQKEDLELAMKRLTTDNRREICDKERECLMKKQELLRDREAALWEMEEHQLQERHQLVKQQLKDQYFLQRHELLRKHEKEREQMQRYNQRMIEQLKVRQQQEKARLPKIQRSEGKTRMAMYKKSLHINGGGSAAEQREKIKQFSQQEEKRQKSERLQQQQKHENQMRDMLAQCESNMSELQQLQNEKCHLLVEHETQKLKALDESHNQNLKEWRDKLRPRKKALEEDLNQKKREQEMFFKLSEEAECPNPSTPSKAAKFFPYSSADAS

Row | SMILES | Kd
22 | N[C@@H]1CCCN(c2c(/C=C3\SC(=O)NC3=O)cccc2-c2ccccc2)C1 | > 30 µM (inactive)
23 | Cc1ccc(S(=O)(=O)Nc2nc3ccccc3nc2Nc2ccc3nsnc3c2)cc1 | > 30 µM (inactive)
24 | CN1CC[C@@H](c2c(O)cc(O)c3c(=O)cc(-c4ccccc4Cl)oc23)[C@@H]1CO | > 30 µM (inactive)

Each compound was assayed against Ribosomal protein S6 kinase alpha-1 (Homo sapiens, UniProt Q15418).
Ribosomal protein S6 kinase alpha-1, sequence (Q15418 whole entry): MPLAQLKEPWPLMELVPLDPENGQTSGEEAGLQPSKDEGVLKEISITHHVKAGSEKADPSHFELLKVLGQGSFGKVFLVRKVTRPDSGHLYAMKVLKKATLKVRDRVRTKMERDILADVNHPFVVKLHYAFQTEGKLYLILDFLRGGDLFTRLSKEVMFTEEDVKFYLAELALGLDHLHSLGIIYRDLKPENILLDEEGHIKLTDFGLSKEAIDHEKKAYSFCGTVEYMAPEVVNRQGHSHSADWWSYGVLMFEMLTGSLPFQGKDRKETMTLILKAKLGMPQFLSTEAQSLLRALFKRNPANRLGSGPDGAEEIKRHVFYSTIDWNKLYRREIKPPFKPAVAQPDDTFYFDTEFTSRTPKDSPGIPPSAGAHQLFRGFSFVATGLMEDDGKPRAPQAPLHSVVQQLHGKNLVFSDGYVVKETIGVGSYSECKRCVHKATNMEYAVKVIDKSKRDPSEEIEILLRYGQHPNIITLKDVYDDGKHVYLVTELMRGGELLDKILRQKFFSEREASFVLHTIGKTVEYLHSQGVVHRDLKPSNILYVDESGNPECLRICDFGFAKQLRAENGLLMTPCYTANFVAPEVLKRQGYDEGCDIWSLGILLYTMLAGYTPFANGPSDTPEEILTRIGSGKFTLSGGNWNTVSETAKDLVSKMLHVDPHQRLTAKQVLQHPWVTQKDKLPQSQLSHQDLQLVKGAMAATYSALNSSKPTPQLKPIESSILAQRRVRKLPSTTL

Row | SMILES | Kd
25 | N[C@@H]1CCCN(c2c(/C=C3\SC(=O)NC3=O)cccc2-c2ccccc2)C1 | > 30 µM (inactive)
26 | Cc1ccc(S(=O)(=O)Nc2nc3ccccc3nc2Nc2ccc3nsnc3c2)cc1 | > 30 µM (inactive)
27 | CN1CC[C@@H](c2c(O)cc(O)c3c(=O)cc(-c4ccccc4Cl)oc23)[C@@H]1CO | > 30 µM (inactive)

What follows are compounds tested against Serine/threonine-protein kinase SIK3 (Homo sapiens, UniProt Q9Y2K2).
Serine/threonine-protein kinase SIK3, sequence (Q9Y2K2 whole entry): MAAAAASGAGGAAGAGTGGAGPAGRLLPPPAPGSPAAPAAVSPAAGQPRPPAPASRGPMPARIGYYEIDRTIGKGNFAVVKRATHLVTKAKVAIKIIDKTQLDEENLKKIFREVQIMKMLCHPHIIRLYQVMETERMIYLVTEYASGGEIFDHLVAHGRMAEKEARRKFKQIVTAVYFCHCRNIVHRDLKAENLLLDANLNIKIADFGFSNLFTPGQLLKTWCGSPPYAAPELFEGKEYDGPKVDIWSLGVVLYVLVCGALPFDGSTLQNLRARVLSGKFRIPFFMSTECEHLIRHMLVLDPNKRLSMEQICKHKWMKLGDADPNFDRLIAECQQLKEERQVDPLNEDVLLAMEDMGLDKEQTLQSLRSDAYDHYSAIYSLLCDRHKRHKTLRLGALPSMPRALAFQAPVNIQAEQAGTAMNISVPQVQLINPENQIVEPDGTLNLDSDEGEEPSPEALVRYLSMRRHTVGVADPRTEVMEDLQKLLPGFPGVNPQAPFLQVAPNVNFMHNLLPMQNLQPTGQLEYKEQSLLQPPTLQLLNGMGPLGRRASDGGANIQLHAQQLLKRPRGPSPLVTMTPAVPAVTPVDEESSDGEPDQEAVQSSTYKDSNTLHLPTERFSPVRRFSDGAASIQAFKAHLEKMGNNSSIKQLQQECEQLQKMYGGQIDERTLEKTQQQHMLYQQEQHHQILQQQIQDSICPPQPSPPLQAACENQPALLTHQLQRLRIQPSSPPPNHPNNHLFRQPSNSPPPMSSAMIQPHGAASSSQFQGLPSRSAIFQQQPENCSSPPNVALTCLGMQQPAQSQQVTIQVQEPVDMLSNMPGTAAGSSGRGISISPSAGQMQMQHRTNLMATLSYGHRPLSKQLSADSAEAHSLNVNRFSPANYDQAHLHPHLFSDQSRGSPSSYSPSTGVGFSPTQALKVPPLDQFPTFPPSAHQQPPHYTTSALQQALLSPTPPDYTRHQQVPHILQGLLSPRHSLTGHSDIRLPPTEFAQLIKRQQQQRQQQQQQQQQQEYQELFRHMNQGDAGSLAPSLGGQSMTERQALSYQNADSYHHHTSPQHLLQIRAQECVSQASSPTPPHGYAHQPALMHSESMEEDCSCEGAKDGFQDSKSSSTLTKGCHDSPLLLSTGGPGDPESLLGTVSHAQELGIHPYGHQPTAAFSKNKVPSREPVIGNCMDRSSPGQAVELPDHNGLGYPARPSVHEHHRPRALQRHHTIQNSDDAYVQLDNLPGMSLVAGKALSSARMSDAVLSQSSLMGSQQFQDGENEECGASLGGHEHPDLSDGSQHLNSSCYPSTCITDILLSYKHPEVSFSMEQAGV

Row | SMILES | Kd
28 | N[C@@H]1CCCN(c2c(/C=C3\SC(=O)NC3=O)cccc2-c2ccccc2)C1 | > 30 µM (inactive)
29 | Cc1ccc(S(=O)(=O)Nc2nc3ccccc3nc2Nc2ccc3nsnc3c2)cc1 | > 30 µM (inactive)
30 | CN1CC[C@@H](c2c(O)cc(O)c3c(=O)cc(-c4ccccc4Cl)oc23)[C@@H]1CO | > 30 µM (inactive)

What follows are compounds tested against T3, Serine/threonine-protein kinase D3 (Homo sapiens, UniProt O94806).
T3 sequence (O94806 whole entry): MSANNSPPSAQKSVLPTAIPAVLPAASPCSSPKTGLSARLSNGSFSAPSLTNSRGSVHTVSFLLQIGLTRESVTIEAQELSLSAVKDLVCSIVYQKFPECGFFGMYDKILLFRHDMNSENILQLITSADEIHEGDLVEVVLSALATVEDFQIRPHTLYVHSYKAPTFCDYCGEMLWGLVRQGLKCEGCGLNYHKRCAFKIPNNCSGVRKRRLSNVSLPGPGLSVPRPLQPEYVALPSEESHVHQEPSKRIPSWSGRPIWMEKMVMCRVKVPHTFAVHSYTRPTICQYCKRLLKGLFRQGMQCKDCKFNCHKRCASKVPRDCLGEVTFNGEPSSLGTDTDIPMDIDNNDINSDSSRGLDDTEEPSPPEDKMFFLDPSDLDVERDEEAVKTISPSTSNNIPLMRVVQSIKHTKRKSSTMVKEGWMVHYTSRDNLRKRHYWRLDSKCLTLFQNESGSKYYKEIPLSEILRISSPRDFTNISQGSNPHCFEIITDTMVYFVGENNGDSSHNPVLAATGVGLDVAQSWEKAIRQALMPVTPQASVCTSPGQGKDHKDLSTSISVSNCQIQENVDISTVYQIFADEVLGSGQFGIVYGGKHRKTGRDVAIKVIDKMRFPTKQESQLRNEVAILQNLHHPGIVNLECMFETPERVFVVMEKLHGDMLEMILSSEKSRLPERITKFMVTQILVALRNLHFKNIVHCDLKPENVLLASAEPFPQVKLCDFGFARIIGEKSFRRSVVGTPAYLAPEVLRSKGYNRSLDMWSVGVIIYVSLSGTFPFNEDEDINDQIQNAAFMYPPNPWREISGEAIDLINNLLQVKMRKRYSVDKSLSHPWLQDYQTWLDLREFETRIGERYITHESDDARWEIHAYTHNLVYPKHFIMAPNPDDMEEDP

Row | SMILES | Kd
31 | N[C@@H]1CCCN(c2c(/C=C3\SC(=O)NC3=O)cccc2-c2ccccc2)C1 | > 30 µM (inactive)
32 | Cc1ccc(S(=O)(=O)Nc2nc3ccccc3nc2Nc2ccc3nsnc3c2)cc1 | > 30 µM (inactive)
33 | CN1CC[C@@H](c2c(O)cc(O)c3c(=O)cc(-c4ccccc4Cl)oc23)[C@@H]1CO | 2.54 µM (active)

What follows are compounds tested against T4, Calcium/calmodulin-dependent protein kinase type IV (Homo sapiens, UniProt Q16566).
T4 sequence (Q16566 whole entry): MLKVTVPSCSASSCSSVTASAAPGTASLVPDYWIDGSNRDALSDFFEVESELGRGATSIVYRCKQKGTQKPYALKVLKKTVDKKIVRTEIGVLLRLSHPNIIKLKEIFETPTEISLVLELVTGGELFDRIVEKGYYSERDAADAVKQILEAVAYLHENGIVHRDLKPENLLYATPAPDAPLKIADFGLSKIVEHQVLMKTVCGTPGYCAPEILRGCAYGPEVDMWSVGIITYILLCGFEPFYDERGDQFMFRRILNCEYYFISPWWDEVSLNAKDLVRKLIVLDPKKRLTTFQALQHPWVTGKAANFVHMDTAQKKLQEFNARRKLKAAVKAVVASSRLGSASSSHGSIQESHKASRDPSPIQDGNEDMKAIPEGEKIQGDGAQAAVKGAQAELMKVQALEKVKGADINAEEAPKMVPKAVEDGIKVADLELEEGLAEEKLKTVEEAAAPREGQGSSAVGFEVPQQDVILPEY

Row | SMILES | Kd
34 | Cc1ccc(S(=O)(=O)Nc2nc3ccccc3nc2Nc2ccc3nsnc3c2)cc1 | > 30 µM (inactive)
35 | CN1CC[C@@H](c2c(O)cc(O)c3c(=O)cc(-c4ccccc4Cl)oc23)[C@@H]1CO | > 30 µM (inactive)
